Test results from PubChem BioAssay (NCI).
Where “and” joins values, the source holds several entries; their conditions need not be identical. Equal values may be shown once.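 How tested: cells in 96-well plates exposed to compound for 48 hours at five concentrations. GI50 = concentration required for 50% inhibition of growth. TGI is the concentration that stops growth completely.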

Tests used:
Assay in all cases: growth of human tumour cells (NCI), 48 h
[1] = system: SNB-75 CNS
[2] = system: BT-549 breast
[3] = system: U251 CNS
[4] = system: OVCAR-8 ovarian
[5] = system: SK-MEL-5 melanoma
[6] = system: K-562 leukemia
[7] = system: A498 renal
[8] = system: COLO 205 colon
[9] = system: KM12 colon
[10] = system: EKVX NSCLC

SMILES | GI50 [1] | TGI [1] | GI50 [2] | GI50 [3] | TGI [3] | GI50 [4] | TGI [4] | TGI [5] | GI50 [6] | GI50 [7] | TGI [7] | GI50 [8] | GI50 [9] | TGI [9] | GI50 [10] | TGI [10] | TGI [2] | TGI [6] | TGI [8]
CC(C)C[C@H](NC(=O)[C@H](Cc1cccc2ccccc12)NC(=O)N1CCOCC1)B(O)O | 0.000622 µM | 0.00348 µM | 0.00039 µM | 0.00196 µM | 0.0245 µM and 0.0429 µM | 0.0113 µM | 0.0626 µM | 0.00237 µM | 0.00347 µM | 0.000871 µM | 0.0288 µM and < 0.0143 µM | 0.00482 µM and 0.015 µM | 0.00149 µM | 0.00376 µM | 0.00928 µM | 0.159 µM | – | – | –
CC(=O)Oc1ccc(/C=C/C(=O)O[C@@H](C)[C@H](C)OC(=O)/C=C/c2ccc(OC(C)=O)c(OC(C)=O)c2)cc1OC(C)=O | – | > 100 µM | – | – | > 100 µM | – | 53.6 µM | 29.2 µM | – | – | 93.9 µM | – | – | 78.8 µM | – | 79.7 µM | 89.2 µM | > 100 µM | > 100 µM
COc1ccc(N2C=Nn3c(nc4sc(C)c(C)c4c3=O)C2)cc1 | – | > 100 µM | – | – | > 100 µM | – | > 100 µM | > 100 µM | – | – | > 100 µM | – | – | > 100 µM | – | > 100 µM | > 100 µM | > 100 µM | > 100 µM
Oc1ccc(Cl)cc1C1=N/C(=N\CN2CCN(C/N=C3/N=C(c4cc(Cl)ccc4O)CC(c4ccccc4)N3)CC2)NC(c2ccccc2)C1 (stereo unspecified) | – | 96.8 µM | – | – | > 100 µM | – | > 100 µM | > 100 µM | – | – | > 100 µM | – | – | > 100 µM | – | > 100 µM | > 100 µM | > 100 µM | > 100 µM
